Data set [1] can be described thus: Effect of solvent of hepcidin-25^+40 on loss of peptide and hepcidin-25 value assignment. In kind it is physicochemical. The procedure:
Heavy hepcidin-25^+40 (hepcidin-25^+40 Da; DTHF(^13C9,^15N)P(^13C5,^15N)I(^13C6,^15N)CI(^13C6,^15N) F(^13C9,^15N)CCG(^15N)CCHRSKCGMCCKT disulfide bridged) was obtained from Peptides International (Table 1). Note that due to an isotope content of 98% the actual mass is 1 Da less than the theoretical mass of this peptide. Freeze dried hepcidin-25^+40 was dissolved in H2O in accordance with the manual. An 0.1 nmol/L solution of hepcidin-25^+40 was aliquoted in 12 µL volumes in 200 µL polypropylene tubes and stored at −80°C until use.
As quantification of native hepcidin in a sample is related to the known concentration of the spiked internal standard, the absolute levels of measured hepcidin are highly dependent on the value assignment of the used internal standard. One determining factor concerns proper dissolvent of the lyophilized peptide and whether or not a substantial amount of the internal standard is lost by aggregation or sticking to laboratory plastics during its preparation. Therefore, we compared the effects of three different solvents to prepare hepcidin-25^+40 stock solutions on the measured hepcidin-25 concentration of a series of spiked blank serum samples to which known hepcidin-25 concentrations were added. […] This finding implicates that use of 5% phosphoric acid leads to loss of about 50% of the peptide, while this seems to be the case for about 15% of the peptide when water is used. […] Therefore, 20% acetonitrile was implemented as solvent for the internal standard in our standard operating procedure, which was used throughout the remainder of this study.
Figure 1 Effect on the solvent of hepcidin-25^+40 on hepcidin-25 linearity and value assignment. […] Linearity of measured hepcidin-25 was determined by the formulas: Y = 1.822X+0.097 (5% phosphoric acid); Y = 1.119X+0.494 (water); Y = 0.964X+0.069 (20% acn).

The conditions of data set [2]: at least; cited from earlier work. The procedure: We conclude that hepcidin-25 results are not changed during 2 years of storage at −80°C, except for a possible small decrease upon freezing. However, after 2 years storage at −80°C, hepcidin results become less precise and individual measurements might become less reliable. Average results for a population may not be affected, but existing differences in hepcidin levels between groups, or correlations of hepcidin with other parameters might be more difficult to assess.

For data set [3] the following is noted: serum, healthy controls; cited from earlier work. The source says:
We observed no differences between the various anticoagulants used. We observed, however, a small non significant decrease of hepcidin-25 upon freezing (e.g. for heparin samples at 7 days: total intensive care and control (n = 15): 95% (CV 8%) relative to fresh samples, Table S3). […] However, it should be noted that the reproducibility of the measurements of the smaller isoforms at low concentrations is low, especially the measurements of hepcidin-20 in EDTA plasma samples (Table 2, Table S3). Thus, hepcidin measurements by WCX-TOF MS are no ...

On the set-up of data set [4]: method as in PMID 22222553. The settings on record: serum, 12 healthy controls; cited from earlier work.

For “DTHF(^13C9,^15N)P(^13C5,^15N)I(^13C6,^15N)CI(^13C6,^15N) F(^13C9,^15N)CCG(^15N)CCHRSKCGMCCKT disulfide bridged (disulfide) [Hepcidin-25^+40, novel custom made heavy hepcidin-25 isotope, disulfide bridged, internal standard]”, the “loss of peptide on dissolution in 5% phosphoric acid” value in data set [1] (inferred from false high measured hepcidin-25 in spiked blank serum) is on record as “about 50%”. In data set [1] (inferred from measured hepcidin-25 in spiked blank serum), the “loss of peptide on dissolution in water” value is “about 15%”. For the same substance, the “measured to nominal hepcidin-25 ratio, internal standard in 20% acetonitril” value in data set [1] (spiked blank serum) is “near 1∶1 ratio”.
With “hepcidin: hepcidin as measured in plasma or serum, isoform not specified at the place”, in data set [2], the “stability at -80°C” value is reported as 6–8 months. The “stability at -20°C” value in data set [3] is at least 42 days. In addition, in data set [4], the “stability at 4°C” value was 6 days.

Values taken from publication PMC3790851, “Improved Mass Spectrometry Assay For Plasma Hepcidin: Detection and Characterization of a Novel Hepcidin Isoform” (PLoS ONE, 2013).
